Data reported in patent US9969715B2, “Compounds useful for treating cancer” (ABIVAX, priority 2012, dated 2018).

Assays:
[1] = test system: MDA-MB231-luc-D3H2LN cells; test: Toxicity assay under normal cell culture conditions (MTS), MDA cells; type: cell-based, human; conditions: MDA-MB231-luc-D3H2LN cells, MEM+10% FBS, 72 h incubation, MTS
Experimental: (§1) In order to detect possible toxic effects, all compounds are tested in parallel in a viability assay. The viability assay is performed in parallel on serum-starved cells (as in the invasion assay) vs. cells under normal culture conditions (10% FBS).
(§2) Toxicity Assays (Under Normal Cell Culture Conditions):
(§3) Compounds were prepared as for the invasion assay, and then added to either MDA-MB231-luc-D3H2LN cells (2000/well) under normal culture conditions (MEM+10% FBS), or human PBMC (75000/well, in RPMI+10% FBS+IL-2) in standard 96-well tissue culture plates. After 72 h incubation, a standard MTS assay was performed according to the manufacturer's instructions (Promega Ref. G3581). Compounds were tested at various concentrations (concentration-response curves) in order to determine the concentrations at which 50% toxicity is obtained.

[2] = test system: human PBMC; test: Toxicity assay under normal cell culture conditions (MTS), PBMC; type: cell-based; conditions: human PBMC, RPMI+10% FBS+IL-2, 72 h incubation, MTS
Experimental: as §2, §3

[3] = test system: MDA-MB231-luc-D3H2LN cells; test: Invasion of MDA-MB231-D3H2LN cells into collagen (example 15 = procedure 2, 48 h drug pre-incubation); type: cell-based; conditions: concentration giving 50% of the anti-invasive effect of 10 μM Y-27632; 48 h pre-incubation, 24 h with 5% FBS; read-out: MDA: Inhib. of invasion: 0.5 × eff. of 10 μM Y-27632 at (μM) av
Experimental: Effect of Drug Compounds on Invasion of MDA-MB231-D3H2LN Cells into Collagen
Preparation of cells at the bottom of a collagen gel: Cells are suspended in a liquid collagen solution (4° C.), distributed into BSA-coated wells, and then collected at the bottom of the wells by centrifugation. The collagen is then solidified by incubation at 37° C. The BSA coating improves the adhesion of the collagen gel.
Pre-treatment with the compounds to be tested: Concentrated drug solutions are then added on top of the collagen, and cells are pre-incubated for 48 h with the drugs at low serum conditions (0.025% FBS).
Stimulation of invasion: Medium with 5% FBS is then added in order to stimulate invasion of the cells into the collagen gel.
(§4) Viability assay, fixation and staining: Following another 24 h incubation, an MTS assay is performed directly on the cells in the collagen. Then, cells are fixed and nuclei are stained.
Analysis: Finally, plates are analyzed using an automated microscope. Fluorescent beads that have been included into the BSA coating serve to detect the bottom of the wells. Pictures of the stained nuclei are taken at the same level (0 μm) as well as 25 μm and 50 μm above.
Negative control: No drug (just DMSO at equivalent concentration). Positive control: 10 μM Y-27632. To avoid edge effects, cells are added only to the 60 central wells B2-G11; lines A and H receive only collagen without cells (blank for the MTS assay) columns 1 and 12 remain free. Each drug is tested at least in triplicate. The positive and negative controls should be tested in several triplicates at different positions on each plate. Typical plate map (−=negative control, +=positive control, 1-12=12 different test conditions, i. e. different drug compounds or concentrations):
Preparation of 4× concentrated drug solutions in MEM+0.1% FBS+2% Lutrol E-400+0.8% DMSO: Mix each 620 μl MEM+0.1% FBS+2% Lutrol E-400 with each 4 μl DMSO+each 1 μl of the 50 mM compound stock solutions (yielding […] and 0.8% DMSO). If the desired final compound concentration is <5 μM, then further dilute in MEM+0.1% FBS+0.8% DMSO. Negative control: MEM+0.1% FBS+2% Lutrol E-400+0.8% DMSO without any drug. Preparation of the positive control: Mix 4.5 ml MEM+0.1% FBS+2% Lutrol E-400+[…] with 36 μl 5 mM Y-27632 (freshly thawed aliquot) (yielding 40 μM).
add each 33 μl/well of the 4× concentrated drug solutions in MEM+0.1% FBS+2% Lutrol E-400+0.8% DMSO to the corresponding wells (yields 1× concentrated drugs in MEM+0.025% FBS+0.5% Lutrol E-400+0.2% DMSO final)
incubate 48 h at 37° C./5% CO2
incubate 24 h at 37° C./5% CO2
for each well, calculate the mean invasion distance of the counted cells: (25 μm×number of cells at 25 μm+50 μm×number cells at 50 μm)/sum of cells at 0, 25 and 50 μm
invalidate any replicate with a CV≥50% (compound to be re-tested, or assay to be repeated if CV≥50% for the untreated negative control or the compound Y-27632-treated positive control). Y27632 is a selective inhibitor of the Rho-associated protein kinase p160ROCK of the following formula
validate the assay only if the mean invasion distance of the cells treated with 10 μM Y-27632 (positive control) is decreased by ≥40% as compared to the untreated negative control
(§5) Final analysis: Determine the concentration at which a given compound has 50% of the anti-invasive effect of the positive control (10 μM Y-27632). Determine the toxicity (=loss of viability) of the compound under these conditions.
Here, invasion (into collagen) is the concentration of the compound necessary to reach 50% of the inhibition effect compared to 10 μM Y-27632.
Standard operating procedure 2 is exactly the same as the procedure as described in example 15.

[4] = molecular target: T1, hERG channel (Homo sapiens, UniProt Q12809); test: hERG channel inhibition (electrophysiology, hERG-transfected HEK293 cells); type: cell-based
T1 construct: host or cells: HEK293
T1 sequence (Q12809 whole entry): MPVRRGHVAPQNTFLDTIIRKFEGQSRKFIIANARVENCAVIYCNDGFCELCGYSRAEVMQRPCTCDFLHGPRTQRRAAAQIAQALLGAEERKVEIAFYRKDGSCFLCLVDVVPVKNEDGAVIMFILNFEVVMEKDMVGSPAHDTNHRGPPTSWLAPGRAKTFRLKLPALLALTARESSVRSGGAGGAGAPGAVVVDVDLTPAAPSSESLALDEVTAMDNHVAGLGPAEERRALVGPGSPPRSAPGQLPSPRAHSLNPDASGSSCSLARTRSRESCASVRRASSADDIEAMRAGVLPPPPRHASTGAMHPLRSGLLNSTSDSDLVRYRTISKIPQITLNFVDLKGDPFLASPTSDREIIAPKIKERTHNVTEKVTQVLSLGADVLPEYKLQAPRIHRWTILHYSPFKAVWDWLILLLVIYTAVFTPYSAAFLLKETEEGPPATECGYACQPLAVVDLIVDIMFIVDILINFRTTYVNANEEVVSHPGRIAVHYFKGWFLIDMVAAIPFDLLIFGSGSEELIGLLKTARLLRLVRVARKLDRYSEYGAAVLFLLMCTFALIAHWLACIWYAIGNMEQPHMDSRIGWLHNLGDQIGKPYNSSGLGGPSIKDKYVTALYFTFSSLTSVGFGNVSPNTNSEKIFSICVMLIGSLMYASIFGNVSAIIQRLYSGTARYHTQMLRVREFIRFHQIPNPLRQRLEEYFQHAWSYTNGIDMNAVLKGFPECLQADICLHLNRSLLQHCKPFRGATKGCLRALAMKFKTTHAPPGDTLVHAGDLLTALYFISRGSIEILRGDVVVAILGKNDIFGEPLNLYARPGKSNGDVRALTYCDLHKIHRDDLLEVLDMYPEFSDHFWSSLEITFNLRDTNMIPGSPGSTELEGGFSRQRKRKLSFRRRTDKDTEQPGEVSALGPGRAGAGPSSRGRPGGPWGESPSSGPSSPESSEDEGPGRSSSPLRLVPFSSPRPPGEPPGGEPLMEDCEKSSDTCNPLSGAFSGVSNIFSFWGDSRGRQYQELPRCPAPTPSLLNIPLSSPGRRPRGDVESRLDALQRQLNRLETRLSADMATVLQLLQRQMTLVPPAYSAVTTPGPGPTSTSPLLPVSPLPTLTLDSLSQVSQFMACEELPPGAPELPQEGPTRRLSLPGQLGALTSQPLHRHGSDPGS
Experimental: Performed by Porsolt & Partners (Z. A. de Glatigné, 53940 Le Genest-Saint-Isle, France). Briefly, each 3 hERG-transfected HEK293 cells were superfused with the compounds at 1 and 10 μM, and the hERG channel current was measured by electrophysiology, as described by Crumb et al., J. Pharmacol. Exp. Ther. 2000.

[5] = test system: MDA-MB231-luc-D3H2LN cells; test: Viability (MTS) assay on the cells in collagen under invasion assay conditions; type: cell-based, human; conditions: loss of viability at the concentration giving 0.5 × effect of 10 μM Y-27632, invasion assay conditions
Experimental: as §4, §1
Viability Assay: MTS Assay:
add each 33 μl/well of the MTS reagent, incubate 3-4 h at 37° C./5% CO2
read absorbance at 490 nm (proportional to the viability)
calculate the background-corrected signals by subtracting the means of the background signals in absence of cells from the corresponding signals in presence of cells
normalize the background-corrected signals with respect to the mean signal of the negative controls (no drug) (viabilities are thus expressed in “% of control”)
as §5

| IC50 [3] | SMILES | MDA tox: 50% tox. at (μM) av [1] | PBMC tox.: 50% tox. at (μM) av [2] | % hERG inhibition in transfected HEK (n = 3) at 1 μM av ([4]; 1 μM compound) | % hERG inhibition in transfected HEK (n = 3) at 10 μM av ([4]; 10 μM compound) | (+ MDA tox. under these cond.) % tox [5] |
| --- | --- | --- | --- | --- | --- | --- |
| > 2 µM | CCN(CC)CCCNC(=O)c1cccc(Nc2cccc(C(=O)Nc3ccccn3)c2)c1 [Compound 11, N-(3-(diethylamino)propyl)-3-((3-(pyridin-2-ylcarbamoyl)phenyl)amino)benzamide] | 44 µM | 47 µM | 64% | 87% |  |
| 3.25 µM | CCN(CC)CCCNC(=O)c1cccc(Nc2cc(C(=O)Nc3ccncc3)ccn2)n1 [Compound 43, N-(3-(diethylamino)propyl)-6-((4-(pyridin-4-ylcarbamoyl)pyridin-2-yl)amino)picolinamide] | >100 µM | >100 µM |  |  | <10% |
| 0.4 µM | CN1CCN(CCCNC(=O)c2ccnc(Nc3cccc(C(=O)Nc4ccncc4)c3)c2)CC1 [Compound 34] | 98 µM | >100 µM |  |  | <10% |
| 0.3 µM | CN1CCN(CCCNC(=O)c2cccc(Nc3cc(C(=O)Nc4ccncc4)ccn3)c2)CC1 [Compound 51, 2-((3-((3-(4-methylpiperazin-1-yl)propyl)carbamoyl)phenyl)amino)-N-(pyridin-4-yl)isonicotinamide] | ≥100 µM | >100 µM |  |  | <10% |
| 0.75 µM | O=C(NCCCN1CCOCC1)c1cccc(Nc2cc(C(=O)Nc3ccncc3)ccn2)c1 [Compound 48, 2-((3-((3-morpholinopropyl)carbamoyl)phenyl)amino)-N-(pyridin-4-yl) isonicotinamide] | 80 µM | 26 µM |  |  | <10% |
| 5 µM | O=C(Nc1ccncc1)c1ccc(Nc2cccc(S(=O)(=O)NCCCN3CCOCC3)c2)cc1 [Compound 15, 4-((3-(N-(3-morpholinopropyl)sulfamoyl)phenyl)amino)-N-(pyridin-4-yl)benzamide] | >>44 μM | 36 µM |  |  | <10% |
| 1.15 µM | CCN(CC)CCCNC(=O)c1ccnc(Nc2cc(C(=O)Nc3ccncc3)ccn2)c1 [Compound 44, N-(3-(diethylamino)propyl)-2-((4-(pyridin-4-ylcarbamoyl)pyridin-2-yl)amino)isonicotinamide] | >100 µM | >100 µM |  |  | <10% |
| 2.05 µM | CN(C(=O)c1cccc(Nc2cccc(C(=O)NCCCN3CCCCC3)c2)c1)c1ccncc1 [Compound 21, N-methyl-3-((3-((3-(piperidin-1-yl)propyl)carbamoyl)phenyl)amino)-N-(pyridin-4-yl)benzamide] | >100 µM | >100 µM |  |  | <10% |
| 2.25 µM | CN(C(=O)c1cccc(Nc2cccc(C(=O)NCCCN3CCOCC3)c2)c1)c1ccncc1 [Compound 22, N-methyl-3-((3-((3-morpholinopropyl)carbamoyl)phenyl)amino)-N-(pyridin-4-yl)benzamide] | >100 µM | >100 µM |  |  | <10% |
| 2.13 µM | CCN(CC)CCCNC(=O)c1ccnc(Nc2cccc(C(=O)Nc3ccncc3)c2)c1 [Compound 33, N-(3-(diethylamino)propyl)-2-((3-(pyridin-4-ylcarbamoyl)phenyl)amino) isonicotinamide] | 118 µM | 130 µM |  |  | <10% |
| 1.88 µM | O=C(NCCCN1CCCC1)c1cccc(Nc2cc(C(=O)Nc3ccncc3)ccn2)c1 [Compound 50, N-(pyridin-4-yl)-2-((3-((3-(pyrrolidin-1-yl)propyl)carbamoyl)phenyl)amino) isonicotinamide] | ≥100 µM | >100 µM |  |  | <10% |
| 0.26 µM | O=C(NCCCN1CCCC1)c1cccc(Nc2cccc(C(=O)Nc3ccncn3)c2)c1 [Compound 28, N-(pyrimidin-4-yl)-3-((3-((3-(pyrrolidin-1-yl)propyl)carbamoyl)phenyl)amino)benzamide] | 35 µM | 49 µM |  |  | <10% |
| < 0.5 µM | CCN(CC)CCCNC(=O)c1cccc(Nc2cccc(C(=O)Nc3ccncn3)c2)c1 [Compound 25, N-(3-(diethylamino)propyl)-3-((3-(pyrimidin-4-ylcarbamoyl)phenyl)amino)benzamide] | 46 µM | 88 µM |  |  | <10% |
| 13.3 µM | CCN(CC)CCCNC(=O)c1cncc(Nc2cccc(C(=O)Nc3ccncc3)c2)c1 [Compound 32, N-(3-(diethylamino)propyl)-5-((3-(pyridin-4-ylcarbamoyl)phenyl)amino) nicotinamide] | >>100 μM | >>100 μM |  |  | <10% |
